Measured values reported in patent US4734435A, “N-[[6-methoxy-5-(trifluoromethyl)-1-naphthalenyl]-thioxome thyl]-N-methylglycine S-oxide and the amide thereof” (American Home Products Corp., priority 1986, dated 1988).

What was measured:
[1] = tested on: galactitol accumulation in the lenses and sciatic nerves; assay: In vivo lowering of dulcitol (galactitol) accumulation in galactosemic rats; design: species or system rat (male, Sprague-Dawley); details: for effect on accumulation of galactitol in the lenses and sciatic nerves (in words): rats fed galactose
Description: The aldose reductase inhibiting property of the compounds of this invention and the utilization of the compounds in preventing, diminishing and alleviating diabetic complications are demonstrable in experiments using galactosemic rats, see Dvornik et al, cited above. Such experiments are exemplified hereinbelow after the listing of the following general comments pertaining to these experiments:
(a) Four or more groups of six male rats, 50-70 g, Sprague-Dawley strain, were used. The first group, the control group, was fed a mixture of laboratory chow (rodent Laboratory Chow, Purina) and glucose at 20% (w/w %) concentration. The untreated galactosemic group and the drug-treated groups were fed a similar diet in which galactose is substituted for glucose. The test compound was either admixed to the diet or administered by gavage. In experiments involving compound administration in the diet, the average dose administered was calculated from the actual food intake of the animals in each group. The concentration of galactose in the diet of the treated groups was the same as that for the untreated galactosemic group.
(b) After four days, the animals were killed by decapitation. The eyeballs were removed and punctured with a razor blade; the freed lenses were rolled gently on filter paper and weighed. The sciatic nerves were dissected as completely as possible and weighed. Both tissues when frozen can be kept up to two weeks before being analyzed for galactitol.
(c) The polyol determination was performed by a modification of the procedure of M. Kraml and L. Cosyns, Clin. Biochem., 2, 373 (1969). Only two minor reagent changes were made: (a) The rinsing mixture was an aqueous 5% (w/v) trichloroacetic acid solution and (b) the stock solution was prepared by dissolving 25 mg of dulcitol in 100 mL of an aqueous trichloroacetic acid solution. [N.B.: For each experiment the average value found in the tissue from rats fed the glucose diet was subtracted from the individual values found in the corresponding tissue in galactose-fed rats to obtain the amount of polyol accumulated.] The aldose reductase inhibiting effects of the compounds of formula (I) were also tested by employing an in vitro testing procedure similar to that described by S. Hayman and J. H. Kinoshita, J. Biol. Chem., 240, 877 (1965). In the present case the procedure of Hayman and Kinoshita was modified in that the final chromatography step was omitted in the preparation of the enzyme from bovine lens.
The figures under L and N represent the percentage decrease of galactitol accumulation in the tissues of the lens and sciatic nerve, respectively, for treated rats as compared to untreated rats.

aldose reductase = target: T1, aldose reductase (Bos taurus, UniProt P16116); assay: In vitro inhibition of aldose reductase from bovine lens (modified Hayman and Kinoshita procedure); type: biochemical; details: 10^-7 M; enzyme from bovine lens
T1 construct: preparation of the enzyme from bovine lens; from tissue; host or cells: bovine lens
Experimental: Only two minor reagent changes were made: (a) The rinsing mixture was an aqueous 5% (w/v) trichloroacetic acid solution and (b) the stock solution was prepared by dissolving 25 mg of dulcitol in 100 mL of an aqueous trichloroacetic acid solution. [N.B.: For each experiment the average value found in the tissue from rats fed the glucose diet was subtracted from the individual values found in the corresponding tissue in galactose-fed rats to obtain the amount of polyol accumulated.] […] In the present case the procedure of Hayman and Kinoshita was modified in that the final chromatography step was omitted in the preparation of the enzyme from bovine lens.

[2] = Metabolites of tolrestat found in humans and other mammals; type: in vivo
[3] = lens, 50 mg/kg/day, gavage (same experiment), four days
[4] = sciatic nerve, 50 mg/kg/day, gavage (same experiment), four days

SMILES: COc1ccc2c(C(=O)N(C)CC(=O)O)cccc2c1C(F)(F)F [N--[[6-methoxy-5-(trifluoromethyl)-1-naphthalenyl]carbonyl]-N--methylglycine, reference compound]
- % lowering dulcitol accumulation in vivo, L (lens) [1, 3]: 0%
- % lowering dulcitol accumulation in vivo, N (sciatic nerve) [1, 4]: 59%

SMILES: COc1ccc2c(C(=S=O)N(C)CC(=O)O)cccc2c1C(F)(F)F [N-[[6-Methoxy-5-(trifluoromethyl)-1-naphthalenyl]thioxomethyl]-N-methylglycine S-oxide]
- comparison with tolrestat at 10 mg/kg/day (in words) ([1]; at a dose of 50 mg/kg/day): comparable results
- % lowering dulcitol accumulation in vivo, L (lens) ([1]; lens, 20 mg/kg/day, diet, four days): 0%
- % lowering dulcitol accumulation in vivo, L (lens) [1, 3]: 0%
- % lowering dulcitol accumulation in vivo, L (lens) ([1]; lens, 115 mg/kg/day, diet, four days): 20%
- effect on accumulation of galactitol in the lenses and sciatic nerves (in words) [1]: diminish the accumulation of galactitol in the lenses and sciatic nerves of rats fed galactose
- % lowering dulcitol accumulation in vivo, N (sciatic nerve) ([1]; sciatic nerve, 20 mg/kg/day, diet, four days): 45%
- % lowering dulcitol accumulation in vivo, N (sciatic nerve) [1, 4]: 70%
- % lowering dulcitol accumulation in vivo, N (sciatic nerve) ([1]; sciatic nerve, 115 mg/kg/day, diet, four days): 100%
- inhibition at 0.1 µM (aldose reductase): 80%
- occurrence as metabolite of tolrestat (in words) [2]: one of the metabolites of tolrestat found in humans and other mammals

SMILES: COc1ccc2c(C(=S=O)N(C)CC(N)=O)cccc2c1C(F)(F)F [[[[6-Methoxy-5-(trifluoromethyl)-1-naphthalenyl]thioxomethyl]methylamino]-acetamide S-oxide]
- % lowering dulcitol accumulation in vivo, L (lens) ([1]; 58 mg/kg/day, 96 h): 0%
- % lowering dulcitol accumulation in vivo, N (sciatic nerve) ([1]; 58 mg/kg/day, 96 h): 77%
- comparison with tolrestat at 10 mg/kg/day (in words) ([1]; at a dose of 58 mg/kg/day): comparable results
- % lowering dulcitol accumulation in vivo, L (lens) ([1]; lens, 12 mg/kg/day, mode of administration not given, four days): 0%
- effect on accumulation of galactitol in the lenses and sciatic nerves (in words) [1]: diminish the accumulation of galactitol in the lenses and sciatic nerves of rats fed galactose
- % lowering dulcitol accumulation in vivo, N (sciatic nerve) ([1]; sciatic nerve, 12 mg/kg/day, mode of administration not given, four days): 45%
- inhibition at 0.1 µM (aldose reductase): 3%

SMILES: COc1ccc2c(C(=S)N(C)CC(=O)O)cccc2c1C(F)(F)F [tolrestat, N-[[6-methoxy-5-(trifluoromethyl)-1-naphthalenyl]thioxomethyl]-N-methylglycine, reference compound]
- % lowering dulcitol accumulation in vivo, L (lens) ([1]; lens, 10 mg/kg/day, gavage (same experiment), four days): 0%
- % lowering dulcitol accumulation in vivo, N (sciatic nerve) ([1]; sciatic nerve, 10 mg/kg/day, gavage (same experiment), four days): 81%
